# Patent USRE48335E1, “Polymyxin derivatives as antimicrobial compounds” (priority 2014, dated 2020)
# Positions of bridges follow the written chain, without caps; N, C: chain ends. Non-standard residues stand in square brackets, D forms with d. Residues, ends and D or L forms follow the SMILES beside them. *: point of attachment. dNle = CCCC[C@@H](N)C(=O)O; Octanoyl = CCCCCCCC(=O)*; Dab = NCC[C@H](N)C(=O)O
# What was measured:
# Acinetobacter baumannii = system: Acinetobacter baumannii
# Summary of the method: (§1)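 Using polymyxin B sulphate as comparator control, the trifluoroacetate-salt lipopeptides were assayed in CAMHB by broth microdilution to CLSI M100-S18, and MICs recorded.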
# Klebsiella pneumoniae = system: Klebsiella pneumoniae
# Summary of the method: as §1
# Enterobacter cloacae = system: Enterobacter cloacae
# Summary of the method: as §1
# Pseudomonas aeruginosa = system: Pseudomonas aeruginosa
# Summary of the method: as §1
# P. aeruginosa ATCC 27853 = test: In vivo efficacy in mouse blood infection model (neutropenic Swiss mice); conditions: compound, free base 4 mg/kg intravenously 2 h after inoculation, blood at 4 h
# Summary of the method: (§2)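 Activity expressed as Δlog10 CFU/mL blood, treated minus saline control, 4 h after a single 4 mg/kg (free base) i.v. dose given 2 h post-infection. Bloodstream infection from i.v. early log-phase inoculum in Swiss mice made neutropenic by i.p. cyclophosphamide on days −4 (150 mg/kg) and −1 (100 mg/kg).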
# A. baumannii ATCC 19606 = test: as above; conditions: compound, free base 4 mg/kg intravenously 2 h after inoculation, blood at 4 h
# Summary of the method: as §2
# [1] = system: K. pneumoniae FADDI-KP032; test: as above; conditions: compound, free base 4 mg/kg intravenously 2 h after inoculation, blood at 4 h
# Summary of the method: as §2
Structure (SMILES),MIC (Acinetobacter baumannii),"Minimum inhibitory concentration, Ab A ATCC 17978 (Acinetobacter baumannii)","Minimum inhibitory concentration, Ab ATCC 19606 (Acinetobacter baumannii)","Minimum inhibitory concentration, Ab FADDI-AB034 (Acinetobacter baumannii)",MIC (Klebsiella pneumoniae),"Minimum inhibitory concentration, Ec FADDI-EC001 (Enterobacter cloacae)","Minimum inhibitory concentration, Ec FADDI-EC003 (Enterobacter cloacae)","Minimum inhibitory concentration, Ec FADDI-EC006 (Enterobacter cloacae)",MIC (Pseudomonas aeruginosa),"Minimum inhibitory concentration, Pa ATCC 27853 (Pseudomonas aeruginosa)","Minimum inhibitory concentration, Pa FADDI-PA022 (Pseudomonas aeruginosa)","Minimum inhibitory concentration, Pa FADDI-PA025 (Pseudomonas aeruginosa)",Δ log (Treated-Control at 4 h) (P. aeruginosa ATCC 27853),Δ log (Treated-Control at 4 h) (A. baumannii ATCC 19606),Δ log (Treated-Control at 4 h) [1]
CCCCCCCC(=O)N[C@@H](CCN)C(=O)N[C@H](C(=O)N[C@@H](CCN)C(=O)N[C@H]1CCNC(=O)[C@H]([C@@H](C)O)NC(=O)[C@H](CCN)NC(=O)[C@H](CCN)NC(=O)[C@H]([C@@H](C)O)NC(=O)[C@@H](Cc2ccccc2)NC(=O)[C@H](CCN)NC1=O)[C@@H](C)O [Compound 22] (Octanoyl-[Dab]T[Dab][Dab][Dab][dF]T[Dab][Dab]T; lactam 4-C),1 µg/mL,1 µg/mL,1 µg/mL,0.5 µg/mL,0.5 µg/mL,<0.125 µg/mL,<0.125 µg/mL,0.25 µg/mL,1 µg/mL,1 µg/mL,1 µg/mL,16 µg/mL,−3.10 log10 CFU/mL,−1.50 log10 CFU/mL,−3.11 log10 CFU/mL
CCCCCCCC(=O)N[C@@H](CCN)C(=O)N[C@H](C(=O)N[C@@H](CCN)C(=O)N[C@H]1CCNC(=O)[C@H]([C@@H](C)O)NC(=O)[C@H](CCN)NC(=O)[C@H](CCN)NC(=O)[C@H](C(C)C)NC(=O)[C@@H](CC(C)C)NC(=O)[C@H](CCN)NC1=O)[C@@H](C)O [Compound 23] (Octanoyl-[Dab]T[Dab][Dab][Dab][dL]V[Dab][Dab]T; lactam 4-C),0.5 µg/mL,0.5 µg/mL,0.5 µg/mL,0.25 µg/mL,<0.125 µg/mL,<0.125 µg/mL,<0.125 µg/mL,0.25 µg/mL,1 µg/mL,1 µg/mL,1 µg/mL,4 µg/mL,−2.48 log10 CFU/mL,−2.82 log10 CFU/mL,−3.88 log10 CFU/mL
CCCCCCCC(=O)N[C@@H](CCN)C(=O)N[C@H](C(=O)N[C@@H](CCN)C(=O)N[C@H]1CCNC(=O)[C@H]([C@@H](C)O)NC(=O)[C@H](CCN)NC(=O)[C@H](CCN)NC(=O)[C@H]([C@@H](C)O)NC(=O)[C@@H](CCCC)NC(=O)[C@H](CCN)NC1=O)[C@@H](C)O [Compound 24] (Octanoyl-[Dab]T[Dab][Dab][Dab][dNle]T[Dab][Dab]T; lactam 4-C),1 µg/mL,1 µg/mL,1 µg/mL,1 µg/mL,<0.125 µg/mL,<0.125 µg/mL,<0.125 µg/mL,0.25 µg/mL,0.5 µg/mL,0.5 µg/mL,0.5 µg/mL,16 µg/mL,−2.31 log10 CFU/mL,−2.16 log10 CFU/mL,−3.21 log10 CFU/mL
